Measurements from patent US10543183B2, “Treatment and diagnosis of melanoma” (The Rockefeller University, priority 2012, dated 2020).
Counter-ions that a name gives are not always drawn.

What was measured:
[1] = test system: human melanoma cells (MeWo, MeWo-LM2, HT-144, SK-Mel-2, SK-Mel-334.2); test: trans-well matrigel cell invasion assay, melanoma cells; assay type: cell-based; conditions: for ability of melanoma cells to invade through matrigel: MeWo, HT-144, SK-Mel-2, SK-Mel-334.2, 1 μM for 72 hours
Experimental: Cancer cells were serum-starved in 0.2% FBS DMEM-based media for 12 hours. Trans-well invasion chambers (354480, BD Biosciences, Bedford, Mass.) were pre-equilibrated prior to beginning the assay by adding 0.5 mL of starvation media to the top and bottom chambers. After 30 minutes, the media in the top chamber was removed, and 0.5 mL of media containing 1×10^5 cancer cells was added into each matrigel-coated trans-well insert and incubated at 37° C. for 24 hours. For neutralization antibody and/or recombinant protein experiments, antibody/recombinant protein was added to each well at the start of the assay at the following concentrations as indicated in the figures: 5-40 μg/mL anti-ApoE 1D7 (Heart Institute, University of Ottawa), 5-40 μg/mL anti-IgG (AB-108-C, R&D Systems, Minneapolis, Minn.), 100 μM recombinant human ApoE3 (4696, BioVision, Mountain View, Calif.), and 100 μM BSA (A2153, Sigma-Aldrich). Upon completion of the assay, matrigel-coated inserts were washed with PBS, the cells at the top side of each insert were scraped off, and the inserts were fixed in 4% paraformaldehyde for 15 minutes. The inserts were then cut out and mounted onto slides using VectaShield mounting medium containing DAPI (H-1000, Vector Laboratories, Burlingame, Calif.). The basal side of each insert was imaged using an inverted fluorescence microscope (Zeiss Axiovert 40 CFL) at 5× magnification, taking three representative images for each insert. The number of invaded cells was quantified using ImageJ (NIH).
The cell invasion assay was performed as previously described in detail (Pencheva et al., 2012) using a trans-well matrigel invasion chamber system (354480, BD Biosciences). In brief, various melanoma cells were cultured in the presence of DMSO, GW3965, T0901317, or Bexarotene at 1 μM for 56 hours, after which melanoma cells were switched to starvation media (0.2% FBS) for 16 hours in the presence of each drug. Following starvation, cells were seeded into matrigel-coated trans-well inserts, and the invasion assay was allowed to proceed for 24 hours at 37° C. For ApoE antibody neutralization experiments, 40 μg/mL 1D7 anti-ApoE blocking antibody (Heart Institute, University of Ottawa, Ottawa, Canada) or 40 μg/mL anti-IgG control antibody (AB-108-C, R&D Systems, Minneapolis, Minn.) was added to each trans-well insert at the start of the assay.
The cells were then serum starved for 16 hours in 0.2% FBS media in the presence of each corresponding drug or DMSO. Following serum starvation, the cells were subjected to the trans-well invasion assay using a matrigel invasion chamber system (354480, BD Biosciences). Invasion chambers were pre-equilibrated prior to the assay by adding 0.5 mL of starvation media to the top and bottom wells. Meanwhile, cancer cells were trypsinized and viable cells were counted using trypan blue. Cancer cells were then resuspended at a concentration of 2×10^5 cells/1 mL starvation media, and 0.5 mL of cell suspension, containing 1×10^5 cells, was seeded into each trans-well. The invasion assay was allowed to proceed for 24 hours at 37° C. […] Following fixation, the inserts were washed in PBS, cut out, and mounted onto slides using VectaShield mounting medium containing DAPI nuclear stain (H-1000, Vector Laboratories). The basal side of each insert was imaged using an inverted fluorescence microscope (Zeiss Axiovert 40 CFL) at 5× magnification, and the number of DAPI-positive cells was quantified using ImageJ.

[2] = test system: melanoma cells; test: cell proliferation and viability assay; assay type: cell-based, human; conditions: for cell proliferation or cell viability rates: MeWo, HT-144, SK-Mel-334.2, 1 μM, 5 days
Experimental: To determine the effects of miR-199a or miR-1908 over-expression and combinatorial LNA-induced miRNA inhibition on cell proliferation, 2.5×10^4 cells were seeded in triplicate in 6-well plates, and viable cells were counted after 5 days. […] Viable cells were counted after 8, 24, 48, 72, and 120 hours.
After 5 days, the number of viable and dead cells was counted using the trypan blue dye (72-57-1, Sigma-Aldrich), which selectively labels dead cells.

[3] = test system: endothelial cells (HUVEC) recruited by human melanoma cells; test: trans-well endothelial recruitment assay; assay type: cell-based; conditions: for ability of melanoma cells to recruit endothelial cells: MeWo, HT-144, SK-Mel-2, SK-Mel-334.2, 1 μM for 72 hours
Experimental: 5×10^4 cancer cells were seeded into 24-well plates approximately 24 hours prior to the start of the assay. HUVEC's were grown to 80% confluency and serum starved in EGM-2 media supplemented with 0.2% FBS for 16 hours. HUVEC's were then pulsed with Cell Tracker Red CMTPX dye (C34552, Invitrogen) for 45 minutes. Meanwhile, cancer cells were washed with PBS, 0.5 mL of 0.2% FBS EGM-2 media was added to each well, and a 3.0 μm HTS Fluoroblock insert (351151, BD Falcon, San Jose, Calif.) was placed into each well. 1×10^5 HUVEC's, resuspended in 0.5 mL of starvation media, were seeded into each trans-well insert, and the recruitment assay was allowed to proceed for 16-18 hours at 37° C. For neutralization antibody and/or recombinant protein experiments, antibody/protein was then added to each well at the appropriate concentration as indicated in the figures: 40 μg/mL anti-ApoE 1D7, 40 μg/mL anti-IgG, 100 μM rhApoE3, and 100 μM BSA. Upon completion of the assay, the inserts were processed and analyzed as described for the matrigel invasion assay above (See Matrigel Invasion Assay).
The endothelial recruitment assay was carried out as previously described (Pencheva et al., 2012; Png et al., 2012). Melanoma cells were treated with DMSO, GW3965, T0901317, or Bexarotene at 1 μM for 56 hours, after which 5×10^4 cells were seeded in a 24-well plate in the presence of each drug and allowed to attach for 16 hours prior to starting the assay. HUVEC cells were serum-starved overnight in EGM-2 media containing 0.2% FBS. The following day, 1×10^5 HUVEC cells were seeded into a 3.0 μm HTS Fluoroblock trans-well migration insert (351151, BD Falcon, San Jose, Calif.) fitted into each well containing cancer cells at the bottom. The HUVEC cells were allowed to migrate towards the cancer cells for 20 hours at 37° C., after which the inserts were processed as previously described (Pencheva et al., 2012). For ApoE antibody neutralization experiments, 40 μg/mL 1D7 anti-ApoE blocking antibody (Heart Institute, University of Ottawa, Ottawa, Canada) or 40 μg/mL anti-IgG control antibody (AB-108-C, R&D Systems, Minneapolis, Minn.) was added to each trans-well insert at the start of the assay.
Subsequently, 5×10^4 cancer cells were seeded into 24-well plates in the presence of each drug or DMSO and allowed to attach for 16 hours prior to starting the assay. Human umbilical vein endothelial cells (HUVEC cells) were serum-starved in 0.2% FBS-containing media overnight. The following day, 1×10^5 HUVEC cells were seeded into a 3.0 μm HTS Fluoroblock insert (351151, BD Falcon) fitted into each well containing the cancer cells at the bottom. The HUVEC cells were allowed to migrate towards the cancer cells for 20 hours, after which the inserts were washed in PBS, fixed in 4% PFA, labeled with DAPI, and mounted on slides. The basal side of each insert was imaged using an inverted fluorescence microscope (Zeiss Axiovert 40 CFL) at 5× magnification, and the number of DAPI-positive cells was quantified using ImageJ.

[4] = parental MeWo cells pre-treated for 48 hours

Row | Compound | invasion by metastatic LM2 cells ([1]; 100 μM added to cell media) | melanoma cell or endothelial cell in vitro proliferation ([2]; 100 μM) | endothelial recruitment by metastatic LM2 cells ([3]; 100 μM added to cell media) | ability of pre-treated endothelial cells to migrate towards highly metastatic cancer cells ([3]; endothelial cells pre-incubated 100 μM, 24 hours, LM2 cells) | ability of melanoma cells to invade through matrigel [1] | cell proliferation or cell viability rates [2] | ability of melanoma cells to recruit endothelial cells [3] | tumor cell invasion [1, 4] | endothelial recruitment [3, 4]
1 | recombinant ApoE3: recombinant human ApoE3 (4696, BioVision) | significantly suppressed | did not affect | significantly suppressed | significantly reduced |  |  |  |  | 
2 | O=S(=O)(c1ccccc1)N(CC(F)(F)F)c1ccc(C(O)(C(F)(F)F)C(F)(F)F)cc1 [T0901317 1] |  |  |  |  | consistently suppressed | did not affect | consistently suppressed |  | 
3 | O=C(O)Cc1cccc(OCCCN(Cc2cccc(C(F)(F)F)c2Cl)CC(c2ccccc2)c2ccccc2)c1 [GW3965 2, 3-[3-[N-(2-Chloro-3-trifluoromethylbenzyl)-(2,2-diphenylethyl)amino]propyloxy] phenylacetic acid hydrochloride] |  |  |  |  | consistently suppressed | did not affect | consistently suppressed | decreased | decreased
